Assay in all cases: DTP human tumour cell line panel, 48 h
Test [1] has as its system EKVX.
Test [2] has as its system HCT-15.
In test [3] the test system is HL-60.
Test [4] relates to IGROV-1.
The test system of test [5] is K562.
Test [6] has as its system KM12.
Test [7] concerns MOLT-4.
Test [8] relates to NCI-H23.
Test [9] concerns OVCAR-3.
Test [10] has as its system OVCAR-4.
The subject of test [11] is SF-268.
The subject of test [12] is SK-MEL-28.
Test [13] concerns SK-MEL-2.
Test [14] has as its system SK-OV-3.
Test [15] relates to SW-620.
Test [16] deals with U-251.
Test [17] deals with UACC-257.
In test [18] the test system is M14.

Data on four compounds can be found in ChEMBL document CHEMBL1201862, “PubChem BioAssay data set” (2004).

SMILES strings stand for the structures.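 Exposure lasted 48 hours, with cells grown in 96-well plates and compounds tested at five concentrations. GI50: concentration for 50% inhibition of growth.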 Active and inactive are the calls of the source. Rule as the data show it: active = GI50 up to about 1.1 µM and inactive = higher.

Regarding `Nc1ncnc2c1ncn2C1CCC(CO)O1` (configuration not stated), the GI50 is > 87.3 µM (inactive) in test [1]; > 100 µM in [2]; > 100 µM (inactive) in test [3]; > 100 µM (inactive) in [4]; > 100 µM (inactive) in test [5]; > 100 µM (inactive) in [6]. The GI50 in test [7] was > 100 µM (inactive); in test [8], > 66.7 µM (inactive); in test [9], > 100 µM (inactive); in test [10] it was > 82.8 µM (inactive); in [11] it was > 60.5 µM (inactive); in test [12] it was > 63.2 µM (inactive). Besides, the GI50 in test [13] is > 100 µM (inactive); in test [14], > 77.6 µM (inactive); in test [15] it was > 100 µM (inactive); in test [16], > 100 µM (inactive); in test [17], > 100 µM (inactive).

Turning to `CC12C(=CC(=O)CC1SCCS(=O)(=O)O)C(C#N)=C(N)N2c1ccc(Cl)c(Cl)c1` (configuration not stated), the GI50 in test [1] is > 100 µM (inactive); in test [2], > 100 µM; in [3], > 100 µM (inactive); in test [4] it was > 100 µM (inactive); in test [5], > 100 µM (inactive); in [6], > 100 µM (inactive). Moreover, the GI50 in test [7], in test [8], in test [9], in test [10], in test [11] and in [12] was > 100 µM (inactive) in each case. Moreover, the GI50 was > 100 µM (inactive) in test [13]; > 100 µM (inactive) in test [14]; 78.9 µM (inactive) in test [15]; > 100 µM (inactive) in test [16]; > 100 µM (inactive) in test [17].

In the case of `COC(=O)c1ccccc1NC(=O)C(=O)CC(=O)CC(c1ccccc1)c1c(O)c2ccccc2oc1=O` (configuration not stated), the GI50 in test [1] is > 100 µM (inactive); in test [3] it was > 100 µM (inactive); in test [4] it was > 100 µM (inactive); in test [5], > 10 µM (inactive); in test [6] it was > 100 µM (inactive); in test [18], > 100 µM (inactive). Besides, the GI50 in test [7], in test [8], in test [9], in test [10], in [11] and in test [12] was > 100 µM (inactive) in each case. For the same compound, the GI50 in [13], in test [14], in test [15] and in [17] was > 100 µM (inactive) each time.

As to `C/C(CCn1[nH]c(=O)ccc1=O)=N\NC(=O)C(=O)NN`, the GI50 in test [1] is > 100 µM (inactive); in test [2] it was > 100 µM; in test [3], > 100 µM (inactive); in test [4], > 100 µM (inactive); in test [5], > 100 µM (inactive); in test [6] it was > 100 µM (inactive). For the same compound, the GI50 in test [18], in test [7], in test [8], in test [9], in [10] and in test [11] was > 100 µM (inactive) each time. For the same compound, the GI50 in [12], in test [13], in test [14], in [15] and in test [17] was > 100 µM (inactive) in each case.

What is called GI50 is the concentration at which growth is held to half of that of the control.
